What was measured:
[1] = n-Octanol-phosphate buffer partition coefficient, log P of the compound at pH 7.4 by shake flask method; assay type: physicochemical
[2] = test system: MDA-MB-468; test: Cytotoxicity against human MDA-MB-468 cells at 10 uM after 48 hrs by SRB assay; assay type: functional; details: MDA-MB-468, 48 h, read-out: GI
[3] = test system: BT-549; test: Cytotoxicity against human BT549 cells at 10 uM after 48 hrs by SRB assay; assay type: functional; details: BT-549, 48 h, read-out: GI
[4] = test system: Hs-578T; test: Cytotoxicity against human Hs578T cells at 10 uM after 48 hrs by SRB assay; assay type: functional; details: read-out: GI
[5] = test system: RXF 393; test: Cytotoxicity against human RXF393 cells at 10 uM after 48 hrs by SRB assay; assay type: functional; details: RXF 393, 48 h, read-out: GI
[6] = test system: A498; test: Cytotoxicity against human A498 cells at 10 uM after 48 hrs by SRB assay; assay type: functional; details: A498, 48 h, read-out: GI
[7] = test system: OVCAR-5; test: Cytotoxicity against human OVCAR5 cells at 10 uM after 48 hrs by SRB assay; assay type: functional; details: OVCAR-5, 48 h, read-out: GI
[8] = test system: SK-MEL-2; test: Cytotoxicity against human SK-MEL-2 cells at 10 uM after 48 hrs by SRB assay; assay type: functional; details: SK-MEL-2, 48 h, read-out: GI
[9] = test system: M14; test: Cytotoxicity against human M14 cells at 10 uM after 48 hrs by SRB assay; assay type: functional; details: M14, 48 h, read-out: GI
[10] = test system: U-251; test: Cytotoxicity against human U251 cells at 10 uM after 48 hrs by SRB assay; assay type: functional; details: U-251, 48 h, read-out: GI
[11] = test system: SNB-75; test: Cytotoxicity against human SNB75 cells at 10 uM after 48 hrs by SRB assay; assay type: functional; details: SNB-75, 48 h, read-out: GI
[12] = test system: KM12; test: Cytotoxicity against human KM12 cells at 10 uM after 48 hrs by SRB assay; assay type: functional; details: KM12, 48 h, read-out: GI
[13] = test system: HT-29; test: Cytotoxicity against human HT-29 cells at 10 uM after 48 hrs by SRB assay; assay type: functional; details: HT-29, 48 h, read-out: GI
[14] = test system: HCT-116; test: Cytotoxicity against human HCT116 cells at 10 uM after 48 hrs by SRB assay; assay type: functional; details: HCT-116, 48 h, read-out: GI
[15] = test system: NCI-H460; test: Cytotoxicity against human NCI-H460 cells at 10 uM after 48 hrs by SRB assay; assay type: functional; details: NCI-H460, 48 h, read-out: GI
[16] = test system: NCI-H23; test: Cytotoxicity against human NCI-H23 cells at 10 uM after 48 hrs by SRB assay; assay type: functional; details: NCI-H23, 48 h, read-out: GI
[17] = test system: K562; test: Cytotoxicity against human K562 cells at 10 uM after 48 hrs by SRB assay; assay type: functional; details: K562, 48 h, read-out: GI
[18] = test system: Malme-3M; test: Cytotoxicity against human MALME-3M cells at 10 uM after 48 hrs by SRB assay; assay type: functional; details: read-out: GI
[19] = test system: CCRF-CEM; test: Cytotoxicity against human CCRF-CEM cells at 10 uM after 48 hrs by SRB assay; assay type: functional; details: read-out: GI

SMILES | logD [1] | inhibition of growth at 10 µM [2] | inhibition of growth at 10 µM [3] | inhibition of growth at 10 µM [4] | inhibition of growth at 10 µM [5] | inhibition of growth at 10 µM [6] | inhibition of growth at 10 µM [7] | inhibition of growth at 10 µM [8] | inhibition of growth at 10 µM [9] | inhibition of growth at 10 µM [10] | inhibition of growth at 10 µM [11] | inhibition of growth at 10 µM [12] | inhibition of growth at 10 µM [13] | inhibition of growth at 10 µM [14] | inhibition of growth at 10 µM [15] | inhibition of growth at 10 µM [16] | inhibition of growth at 10 µM [17] | inhibition of growth at 10 µM [18] | inhibition of growth at 10 µM [19]
C=CCn1c(C)nc2cc(Nc3nc(Cl)nc4ccccc34)ccc21 | 1.17 | 19.1% | < 10% | < 10% | < 10% | 31.5% | < 10% | < 10% | < 10% | < 10% | < 10% | < 10% | < 10% | < 10% | < 10% | < 10% | 21.3% | – | –
C=CCn1c(C)nc2ccc(Nc3nc(Cl)nc4ccccc34)cc21 | 2.1 | 16.3% | < 10% | < 10% | 12.5% | 44.5% | < 10% | < 10% | < 10% | < 10% | < 10% | < 10% | < 10% | < 10% | < 10% | < 10% | 25.2% | < 10% | –
C=CCn1c(C)nc2cc(Nc3nc(N4CCOCC4)nc4ccccc34)ccc21 | 2.49 | < 10% | < 10% | < 10% | < 10% | 20.7% | < 10% | < 10% | < 10% | < 10% | < 10% | < 10% | < 10% | < 10% | < 10% | < 10% | < 10% | – | –
C=CCn1c(C)nc2ccc(Nc3nc(N4CCCC4)nc4ccccc34)cc21 | 2.9 | < 10% | 13.1% | 13.1% | 47.6% | 28.5% | < 10% | < 10% | 10.3% | < 10% | 16.3% | 29.9% | 94.3% | 80.3% | 18.7% | 11.3% | 98% | < 10% | –
C=CCn1c(C)nc2ccc(Nc3nc(N4CCN(C)CC4)nc4ccccc34)cc21 | 1.03 | < 10% | 20.7% | 23.3% | < 10% | < 10% | 16.5% | < 10% | < 10% | 10.2% | 17.6% | 20.5% | 42.6% | 33% | < 10% | 19.2% | 37.8% | < 10% | 31.5%
C=CCn1c(C)nc2cc(Nc3nc(N4CCCC4)nc4ccccc34)ccc21 | 2.51 | 13.3% | < 10% | < 10% | < 10% | 27.6% | < 10% | < 10% | < 10% | < 10% | < 10% | < 10% | < 10% | < 10% | < 10% | < 10% | 14.9% | < 10% | –
C=CCn1c(C)nc2ccc(Nc3nc(N4CCOCC4)nc4ccccc34)cc21 | 2.81 | < 10% | < 10% | < 10% | < 10% | 41.2% | < 10% | < 10% | < 10% | < 10% | 12.6% | 11.9% | 34.7% | < 10% | < 10% | < 10% | 35.6% | < 10% | –

Source: ChEMBL document CHEMBL2380212, “Synthesis, single crystal and antitumor activities of benzimidazole-quinazoline hybrids” (Bioorg Med Chem Lett, 2013)
